Measured values as given in ChEMBL document CHEMBL1137304, “Fluorinated conformationally restricted gamma-aminobutyric acid aminotransferase inhibitors” (J Med Chem, 2006).

Assays:
[1] = target: 4-aminobutyrate aminotransferase, mitochondrial (Sus scrofa, UniProt P80147); test: Inhibition of pig brain GABA-AT in presence of beta-mercaptoethanol
[2] = target: 4-aminobutyrate aminotransferase, mitochondrial (Sus scrofa) (UniProt P80147); test: Inhibition of pig brain GABA-AT in presence of beta-mercaptoethanol at 0.2 M; conditions: TDE = time-dependent effect
Sequence of 4-aminobutyrate aminotransferase, mitochondrial (Sus scrofa) (P80147 whole entry): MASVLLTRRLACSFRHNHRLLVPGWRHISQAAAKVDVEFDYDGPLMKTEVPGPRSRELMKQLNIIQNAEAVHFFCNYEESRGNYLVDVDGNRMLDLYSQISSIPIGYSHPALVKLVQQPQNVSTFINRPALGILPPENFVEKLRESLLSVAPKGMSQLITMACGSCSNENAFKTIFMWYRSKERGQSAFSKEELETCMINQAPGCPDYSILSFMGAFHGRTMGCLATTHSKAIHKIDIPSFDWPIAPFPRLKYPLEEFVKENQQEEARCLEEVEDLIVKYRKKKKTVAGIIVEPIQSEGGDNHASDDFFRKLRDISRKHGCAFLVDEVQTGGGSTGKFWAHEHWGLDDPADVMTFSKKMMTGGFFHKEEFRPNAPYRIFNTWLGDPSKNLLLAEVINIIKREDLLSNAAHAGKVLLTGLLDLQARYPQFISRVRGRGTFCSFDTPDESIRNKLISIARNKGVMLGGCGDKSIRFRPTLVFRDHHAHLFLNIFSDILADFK

[3] = target: 4-aminobutyrate aminotransferase, mitochondrial (Sus scrofa) (UniProt P80147); test: Residual activity at pig brain GABA-AT assessed by exhaustive dialysis at 0.2 M after 22 hrs relative to control

Sequence of 4-aminobutyrate aminotransferase, mitochondrial (P80147 whole entry): as above

Row | SMILES | Ki [1] [mM] | Activity [2] | Activity [3] [%]
1 | N[C@H]1C[C@@H](C(=O)O)C=C1C(F)(F)C(F)(F)F | 2.8 |  | 
2 | N[C@H]1C[C@@H](C(=O)O)C=C1F | 1.3 |  | 

The next lines start with the values.

Row | Ki [1] [mM] | Activity [2] | Activity [3] [%] | SMILES
3 | 7.74 | tde |  | N[C@H]1C[C@@H](C(=O)O)C/C1=C/C(F)(F)F
4 | 4.11 | tde | 48 | N[C@H]1C[C@@H](C(=O)O)C=C1C(F)(F)F
5 | 39.2 | tde | 13 | N[C@H]1C[C@@H](C(=O)O)CC1=CC(F)(F)F
6 | 4.2 |  |  | N[C@H]1C[C@@H](C(=O)O)CC1=C(C(F)(F)F)C(F)(F)F
